According to ChEMBL document CHEMBL5532726, “Somatostatin Receptor Subtype 4 Agonists for Potential Treatment of Alzheimer's Disease and Other Central Nervous System Disorders” (ACS Med Chem Lett, 2024):

Molecular target: Somatostatin receptor type 1 (Homo sapiens, UniProt P30872)
Sequence (P30872 whole entry): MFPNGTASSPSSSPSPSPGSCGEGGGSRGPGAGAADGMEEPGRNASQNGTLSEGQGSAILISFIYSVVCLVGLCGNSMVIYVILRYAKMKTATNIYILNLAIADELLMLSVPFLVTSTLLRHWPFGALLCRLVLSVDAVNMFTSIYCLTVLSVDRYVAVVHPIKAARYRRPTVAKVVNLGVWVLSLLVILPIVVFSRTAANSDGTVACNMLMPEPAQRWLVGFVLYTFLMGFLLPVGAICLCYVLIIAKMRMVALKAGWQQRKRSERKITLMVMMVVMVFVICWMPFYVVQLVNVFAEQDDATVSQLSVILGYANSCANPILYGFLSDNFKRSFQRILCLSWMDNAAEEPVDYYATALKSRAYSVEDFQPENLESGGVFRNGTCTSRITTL

IC50: > 50.1 µM
Structure (SMILES): CC(Oc1ccccc1C1CC1)C(=O)N[C@H]1CCNC[C@@H]1F (stereo partly specified)
